Source: ChEMBL document CHEMBL4196232, “A Series of Indole-Thiazole Derivatives Act as GPER Agonists and Inhibit Breast Cancer Cell Growth” (ACS Med Chem Lett, 2018)
Active and inactive are the calls of the source. No cut-off for these calls is given here.

Experiments:
[1] = tested on: MDA-MB-231; assay: Cytotoxicity against human MDA-MB-231 cells assessed as decrease in cell viability at 1 uM after 72 hrs in absence of GPER agonist E2 by MTS assay; assay type: functional, cell-based
[2] = tested on: HL-60; assay: Decrease in cAMP accumulation in human HL60 cells harboring GPER siRNA at 100 nM after 48 hrs by HTRF assay; assay type: functional, cell-based
[3] = tested on: MCF7; assay: Cytotoxicity against human MCF7 cells assessed as decrease in cell viability at 1 uM after 72 hrs in presence of GPER agonist E2 by MTS assay; assay type: functional, cell-based
[4] = tested on: SK-BR-3; assay: Cytotoxicity against human SKBR3 cells assessed as decrease in cell viability at 1 uM after 72 hrs in presence of GPER agonist E2 by MTS assay; assay type: functional, cell-based
[5] = target: Estrogen receptor beta (Homo sapiens) (UniProt Q92731); assay: Displacement of fluoromone from recombinant human full length untagged estrogen receptor beta expressed in insect cells after 2 hrs by fluorescence polarization assay
Sequence of Estrogen receptor beta (Homo sapiens) (Q92731 whole entry): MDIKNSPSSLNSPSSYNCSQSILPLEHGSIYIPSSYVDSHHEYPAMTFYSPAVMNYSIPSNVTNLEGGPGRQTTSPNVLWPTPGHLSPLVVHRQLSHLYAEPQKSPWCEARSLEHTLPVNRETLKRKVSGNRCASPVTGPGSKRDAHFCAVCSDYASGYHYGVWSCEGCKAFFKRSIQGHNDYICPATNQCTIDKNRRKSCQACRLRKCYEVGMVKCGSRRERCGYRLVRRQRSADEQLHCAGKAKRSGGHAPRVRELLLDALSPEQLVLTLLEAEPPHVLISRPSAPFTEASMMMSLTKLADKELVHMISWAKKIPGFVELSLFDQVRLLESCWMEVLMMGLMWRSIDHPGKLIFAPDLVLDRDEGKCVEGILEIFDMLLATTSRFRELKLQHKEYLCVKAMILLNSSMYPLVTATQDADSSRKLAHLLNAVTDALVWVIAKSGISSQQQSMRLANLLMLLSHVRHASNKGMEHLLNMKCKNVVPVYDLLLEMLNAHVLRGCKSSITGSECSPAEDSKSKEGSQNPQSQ

[6] = tested on: SK-BR-3; assay: Cytotoxicity against human SKBR3 cells assessed as decrease in cell viability at 1 uM after 72 hrs in absence of GPER agonist E2 by MTS assay; assay type: functional, cell-based
[7] = tested on: MDA-MB-231; assay: Cytotoxicity against human MDA-MB-231 cells assessed as decrease in cell viability at 1 uM after 72 hrs in presence of GPER agonist E2 by MTS assay; assay type: functional, cell-based
[8] = target: T1, G-protein coupled estrogen receptor 1 (Homo sapiens, UniProt Q99527); assay: Antagonist activity at GPER (unknown origin) expressed in human HL60 cells assessed as inhibition of G-1-induced cAMP accumulation preincubated for 20 mins followed by G-1 addition measured after 10 mins by HTRF assay; assay type: functional, cell-based
T1 sequence (Q99527 whole entry): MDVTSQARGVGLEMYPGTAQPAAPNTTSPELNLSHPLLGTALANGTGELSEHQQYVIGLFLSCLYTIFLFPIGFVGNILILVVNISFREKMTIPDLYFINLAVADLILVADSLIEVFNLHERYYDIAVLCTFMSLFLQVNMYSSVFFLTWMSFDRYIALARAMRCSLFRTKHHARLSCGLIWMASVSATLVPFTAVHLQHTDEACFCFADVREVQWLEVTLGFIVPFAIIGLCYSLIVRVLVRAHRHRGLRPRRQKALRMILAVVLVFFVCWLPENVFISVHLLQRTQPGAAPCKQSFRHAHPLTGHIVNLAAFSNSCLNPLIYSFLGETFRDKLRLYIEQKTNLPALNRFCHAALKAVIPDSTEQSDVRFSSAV

[9] = target: T1, G-protein coupled estrogen receptor 1; assay: Agonist activity at GPER (unknown origin) expressed in human HL60 cells assessed as increase in cAMP accumulation in presence of IBMX after 15 mins by HTRF assay; assay type: functional, cell-based
[10] = target: Estrogen receptor beta (Homo sapiens) (UniProt Q92731); assay: Displacement of fluoromone from recombinant human full length untagged estrogen receptor beta expressed in insect cells at
[11] = target: T2, Estrogen receptor (Homo sapiens) (UniProt P03372); assay: Displacement of fluoromone from recombinant human full length untagged estrogen receptor alpha expressed in insect cells at
T2 sequence (whole entry): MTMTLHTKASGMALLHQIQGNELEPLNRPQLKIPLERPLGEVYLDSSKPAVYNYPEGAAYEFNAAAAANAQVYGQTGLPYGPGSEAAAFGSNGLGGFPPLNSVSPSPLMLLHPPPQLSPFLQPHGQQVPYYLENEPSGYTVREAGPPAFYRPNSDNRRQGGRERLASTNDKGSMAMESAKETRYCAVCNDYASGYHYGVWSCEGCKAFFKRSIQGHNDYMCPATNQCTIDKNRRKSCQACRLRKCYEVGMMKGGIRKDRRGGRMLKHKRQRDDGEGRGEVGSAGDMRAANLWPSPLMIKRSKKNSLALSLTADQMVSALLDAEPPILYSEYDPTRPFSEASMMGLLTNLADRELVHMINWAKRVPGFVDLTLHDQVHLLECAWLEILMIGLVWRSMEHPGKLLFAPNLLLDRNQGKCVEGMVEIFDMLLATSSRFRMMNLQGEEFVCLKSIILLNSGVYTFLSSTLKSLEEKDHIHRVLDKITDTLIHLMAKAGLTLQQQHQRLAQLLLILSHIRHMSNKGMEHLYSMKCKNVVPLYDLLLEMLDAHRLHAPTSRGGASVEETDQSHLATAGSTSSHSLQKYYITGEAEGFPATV

[12] = target: T2, Estrogen receptor (Homo sapiens); assay: Displacement of fluoromone from recombinant human full length untagged estrogen receptor alpha expressed in insect cells at 1 uM after 2 hrs by fluorescence polarization assay
[13] = target: Estrogen receptor beta (Homo sapiens) (UniProt Q92731); assay: Displacement of fluoromone from recombinant human full length untagged estrogen receptor beta expressed in insect cells at 1 uM after 2 hrs by fluorescence polarization assay

| inhibition [8] | SMILES | Activity [1] | Activity [3] | Activity [4] | Activity [6] | Activity [7] | further results |
| --- | --- | --- | --- | --- | --- | --- | --- |
|  | CC(=O)c1ccc2c(c1)[C@@H]1C=CC[C@@H]1[C@H](c1cc3c(cc1Br)OCO3)N2 | Active | Active | Active | Active | Active | Activity [2]: inactive; Activity [5]: inactive |
| inactive | COc1cc(OC)c2[nH]c(C(=O)Nc3ncc(Cc4ccccc4)s3)cc2c1 |  |  |  |  |  |  |
| inactive | O=C(Nc1nc2c(s1)CCC2)c1cc2cc(F)ccc2[nH]1 |  |  |  |  |  | Activity [9]: inactive |
| inactive | N#Cc1ccc(Cc2cnc(NC(=O)c3cc4cc(F)ccc4[nH]3)s2)cc1 |  |  |  |  |  |  |
|  | O=C(Nc1ncc(Cc2ccc(F)cc2F)s1)c1[nH]c2ccccc2c1Cl | Active | Active | Active | Active | Active | Activity [2]: inactive; Activity [5]: inactive; Activity [10]: inactive; EC50 [9]: 1620 nM; Activity [11]: inactive |
| inactive | O=C(Nc1nc2c(s1)CCC2)c1cc2cc(Br)ccc2[nH]1 |  |  |  |  |  | Activity [9]: inactive |
|  | CCc1nc(NC(=O)c2[nH]c3ccc(Br)cc3c2Cl)sc1C | inactive | Active | inactive | inactive | inactive | Activity [12]: Active; Activity [10]: inactive; Activity [13]: Active; EC50 [9]: 480 nM; Activity [11]: inactive |
| inactive | CC(C)c1csc(NC(=O)c2cc3c(Cl)cccc3[nH]2)n1 |  |  |  |  |  | Activity [9]: inactive |
| inactive | CSc1ncc(Cl)c(C(=O)Nc2ncc(Cc3ccc(F)cc3)s2)n1 |  |  |  |  |  |  |
|  | Brc1cc2c(cc1[C@@H]1Nc3ccccc3[C@@H]3C=CC[C@@H]31)OCO2 | inactive | Active |  |  | inactive |  |
| inactive | O=C(Nc1ncc(Cc2ccc(F)cc2)s1)c1cc2cc(F)ccc2[nH]1 | inactive |  | inactive | inactive | inactive | Activity [12]: Active; Activity [13]: Active; EC50 [9]: 20 nM |
